# From patent US10053484B2, “Heterocycle-substituted xanthene dyes” (Biotium, Inc., priority 2009, dated 2018)
# “Also recorded” adds a separate entry of the source.
# Legend:
# [1] = Measurement of absorption and emission spectra of free dyes or dye-protein conjugates; assay type: physicochemical; details: for Absorption Wavelengths / Emission Wavelengths: in PBS
# Description: The absorption spectra of free dyes or dye-antibody conjugates were measured on Beckman Coulter DU800 in pH 7.4 PBS. The concentrations of the dyes or conjugates were adjusted so that the maximal absorbance was around 1.0. The fluorescence emission spectra of the free dyes and conjugates were measured on a Hitachi F4500.
# [2] = Photostability comparison of dye-antibody conjugates on stained fixed Jurkat cells (microscopy, Cy5 filter set); assay type: physicochemical; details: for photostability: goat anti-mouse IgG conjugates on fixed Jurkat cells, continuous illumination, relative fluorescence vs. time (FIG. 5)
# Description: Jurkat cells were fixed and stained with intracellular mouse anti-human CD3 primary antibody (0.375 ug) followed by 1 ug of goat-anti-mouse IgG conjugated to AlexaFluor633 (DOL 2.3), compound No. 6 (DOL 2.3), DyLight649 (DOL˜6), or Alexa Fluor 647 (DOL˜6). The DOL for each conjugate was the optimal value for each dye. Images were taken on an Olympus mercury arc lamp microscope using a Cy5 filter set. The relative fluorescence vs. time for each sample was plotted (FIG. 5). Traditionally, sulfonated cyanine dyes, such as Alexa Fluor 647 and DyLight 647, have been used for the 633 nm excitation by the HeNe laser with red emission. More recently, rhodamine-based Alexa Fluor 633 dye has become commercially available.
# [3] = cited from earlier work; for absorption wavelength: commercial cyanine dyes used for the 633 nm laser
# [4] = Measurement of absorption and emission spectra of free dyes or dye-protein conjugates; assay type: physicochemical; details: in MeOH
# Jurkat cells = test: Mitochondrial staining as a function of membrane potential (flow cytometry, with/without CCCP); assay type: cell-based; details: 50 nM dye with and without 50 uM CCCP, 30 minutes, FL4 channel (FIG. 10)
# Description: Live Jurkat cells were stained with 50 nM Compound No. 16 with and without 50 uM carbonyl cyanide m-chlorophenyl hydrozone (CCCP) for 30 minutes prior to analysis by flow cytometry on the FL4 channel of a BD FACS Calibur. Treatment with CCCP disrupts the mitochondrial membrane potential. The graph depicts the relative geometric mean fluorescence of the stained population treated without (Control) or with 50 uM CCCP. […] The membrane potential-dependent mitochondrial staining by compound No. 16 makes the dye useful for assessing the health of cells as only healthy cells have functional mitochondria and have normal membrane potential. For example, cells undergoing apoptosis are known to lose membrane potential.
# HeLa cells = test: Mitochondrial staining of live HeLa cells; assay type: cell-based; details: 200 nM compound No. 16 or 10 uM compound No. 74, DMEM, 30 minutes, 37° C. (FIG. 9)
# Description: HeLa cells were cultured for 2 days at 37° C., 5% CO2. Live cells were stained with 200 nM compound No. 16 or 10 uM compound No. 74 in DMEM media for 30 minutes at 37° C., 5% CO2. Cells were washed in fresh medium and cells were viewed on a mercury arc lamp microscope using a Cy5 filter set. Images were taken using a CCD camera and Image Pro Express software.
# [5] = known xanthene dyes, background
Compound,Absorption Wavelengths [1],Emission Wavelengths [1] [nm],also measured
CCN1c2cc3c(cc2C(CS(=O)(=O)O)=CC1(C)C)C(c1nccn1CCCCCC(=O)NCCOCCOCCOCCOCCOCCOCCOCCOCCOCCOCCOCCOC(=O)ON1C(=O)CCC1=O)=c1cc2c(cc1O3)=[N+](CC)C(C)(C)C=C2CS(=O)(=O)[O-] [Compound No. 6],622 nm,649,absorption peak ([1]; FIG. 1: conjugated to goat anti-mouse IgG in PBS): about 633 nm; photostability [2]: significantly more photostable than DyLight 633; also recorded: approximately similar stability to that of Alexa Fluor 633; also recorded: very photostable
O=C(O)CCCCCn1ccnc1-c1c2cc/c(=N/CC(F)(F)F)cc-2oc2cc(NCC(F)(F)F)ccc12 [compound 84],533 nm,550,–
CCN1/C(=C/C=C/C=C/C2=[N+](CCCCCC(=O)O)c3ccc(S(=O)(=O)O)cc3C2(C)C)C(C)(C)c2cc(S(=O)(=O)[O-])ccc21 [Cy5],–,–,absorption wavelength [3]: ~650 nm
Alexa Fluor 647 [reference compound],–,–,time to being essentially totally bleached ([2]; goat anti-mouse IgG conjugates on fixed Jurkat cells (FIG. 5)): about 1 minute; photostability [2]: poor photostability; absorption wavelength [3]: ~650 nm
CC1CC(C)(C)Nc2c1cc1c(c2S(=O)(=O)O)Oc2c(S(=O)(=O)O)c3c(cc2=C1c1nccn1CCCCCC(=O)ON1C(=O)CCC1=O)C(C)CC(C)(C)N=3 (centres unmarked) [Compound No. 2],559 nm,579,–
CCN1c2cc3c(cc2C(C)=CC1(C)C)C(c1nc2ccccc2n1C)=c1cc2c(cc1O3)=[N+](CC)C(C)(C)C=C2C.[Cl-] [Compound No. 70],–,–,Absorption Wavelengths [4]: 628 nm; Emission Wavelengths [4]: 656 nm
CCN1c2cc3c(cc2C(CS(=O)(=O)[O-])=CC1(C)C)C(c1n(CC(=O)N2CCC(C(=O)ON4C(=O)CCC4=O)CC2)cc[n+]1CCCS(=O)(=O)O)=c1cc2c(cc1O3)=[N+](CC)C(C)(C)C=C2CS(=O)(=O)[O-] [compound 72],660 nm,681,–
CC1CC(C)(C)Nc2c1cc1c(c2S(=O)(=O)[O-])Oc2c(S(=O)(=O)O)c3c(cc2=C1c1n(CCCCCC(=O)ON2C(=O)CCC2=O)cc[n+]1CCCS(=O)(=O)O)C(C)CC(C)(C)N=3 (centres unmarked) [compound 76],593 nm,614,–
CCN1c2cc3c(cc2C(C)=CC1(C)C)C(c1nccs1)=c1cc2c(cc1O3)=[N+](CC)C(C)(C)C=C2C [compound 85],627 nm,698,–
CCN1c2cc3c(cc2C(CS(=O)(=O)[O-])=CC1(C)C)C(c1nccn1CCCCCC(=O)ON1C(=O)CCC1=O)=c1cc2c(cc1O3)=[N+](CCCS(=O)(=O)O)C(C)(C)C=C2CS(=O)(=O)O [compound 10],622 nm,649,–
carboxy-rhodamine 110,–,–,"absorption maxima [3, 5]: 502 nm; emission maxima [3, 5]: 524 nm"
CCN1c2cc3c(cc2C(C)=CC1(C)C)C(c1nccn1C)=c1cc2c(cc1O3)=[N+](CC)C(C)(C)C=C2C [Compound No. 16],–,–,membrane potential dependence of mitochondrial staining (Jurkat cells): stains mitochondria in a membrane potential-dependent fashion; also recorded: sensitive to disruption of the mitochondrial membrane potential; Absorption Wavelengths [4]: 622 nm; Emission Wavelengths [4]: 648 nm; localization of dye in live cells (HeLa cells): concentrated in the mitochondria
CC1(C)C=C(CS(=O)(=O)O)c2cc3c(cc2=N1)Oc1cc2c(cc1C=3c1n(CCCCCC(=O)ON3C(=O)CCC3=O)cc[n+]1CCCS(=O)(=O)O)C(CS(=O)(=O)[O-])=CC(C)(C)N2 [compound 71],642 nm,662,–
CCN1c2cc3c(cc2C(C)=CC1(C)C)C(c1n(C)cc[n+]1C)=c1cc2c(cc1O3)=[N+](CC)C(C)(C)C=C2C [Compound No. 74],–,–,Absorption Wavelengths [4]: 660 nm; Emission Wavelengths [4]: 688 nm; localization of dye in live cells (HeLa cells): concentrated in the mitochondria

# Further lines, with some results ahead:
Absorption Wavelengths [1],Emission Wavelengths [1] [nm],Compound,also measured
578 nm⁻¹,–,C/N=c1\cc2oc3cc(NC)c(S(=O)(=O)O)cc3c(-c3nccn3CCCCCC(=O)O)c-2cc1S(=O)(=O)O [compound 77],–
603 nm,626,CC1(C)C=C(CS(=O)(=O)O)c2cc3c(cc2=N1)Oc1cc2c(cc1C=3c1nccn1CCCCCC(=O)ON1C(=O)CCC1=O)C(CS(=O)(=O)O)=CC(C)(C)N2 [Compound No. 4],–
485 nm,508,N=c1ccc2c(-c3[nH]cnc3C(=O)O)c3ccc(N)cc3oc-2c1 [compound 21],–
529 nm,548,CC1CC(C)(C)Nc2c1cc1c(c2S(=O)(=O)O)Oc2c(S(=O)(=O)O)c3c(cc2=C1c1[nH]cnc1C(=O)O)C(C)CC(C)(C)N=3 (centres unmarked) [Compound No. 3],–
599 nm,~620,CCN1c2cc3c(cc2C(C)=CC1(C)C)C(c1ccncc1C(=O)[O-])=c1cc2c(cc1O3)=[N+](CCCCCC(=O)O)C(C)(C)C=C2C [compound 23],–
622 nm,649,CCN1c2cc3c(cc2C(CS(=O)(=O)[O-])=CC1(C)C)C(c1nccn1CCCCCC(=O)ON1C(=O)CCC1=O)=c1cc2c(cc1O3)=[N+](CC)C(C)(C)C=C2CS(=O)(=O)O [Compound No. 5],–
647 nm,676,CCN1c2cc3c(cc2C(C)=CC1(C)C)C(c1cocn1)=c1cc2c(cc1O3)=[N+](CC)C(C)(C)C=C2C [compound 87],–
680 nm,701,CC1(C)C=C(CS(=O)(=O)[O-])c2cc3c(c4c2N1CCC4)Oc1c2c4c(cc1=C3c1n(CCCCCC(=O)ON3C(=O)CCC3=O)cc[n+]1CCCS(=O)(=O)O)C(CS(=O)(=O)[O-])=CC(C)(C)[N+]=4CCC2 [Compound No. 75],–
592 nm,615,CC1CC(C)(C)Nc2c1cc1c(c2S(=O)(=O)[O-])Oc2c(S(=O)(=O)O)c3c(cc2=C1c1n(CCCCCC(=O)ON2C(=O)CCC2=O)cc[n+]1C)C(C)CC(C)(C)N=3 (centres unmarked) [Compound No. 29],–
622 nm,648,CCN1c2cc3c(cc2C(C)=CC1(C)C)C(c1nccn1Cc1ccc(CCl)cc1)=c1cc2c(cc1O3)=[N+](CC)C(C)(C)C=C2C.[Cl-] [Compound No. 9],–
548 nm,571,CC1N=c2c(cc3c(c2S(=O)(=O)O)Oc2c(cc4c(c2S(=O)(=O)O)NC(C)C4(C)C)C=3c2nccn2CCCCCC(=O)ON2C(=O)CCC2=O)C1(C)C (centres unmarked) [Compound No. 1],–
638 nm,660,CC1(C)C=C(CS(=O)(=O)[O-])c2cc3c(c4c2N1CCC4)Oc1c2c4c(cc1=C3c1nccn1CCCCCC(=O)ON1C(=O)CCC1=O)C(CS(=O)(=O)O)=CC(C)(C)[N+]=4CCC2 [Compound No. 7],–
